Source: the NIST ThermoML archive (doi:10.1016/j.jct.2012.07.007)
± gives the expanded uncertainty stated by the source.

Conditions: 101.33 kPa, Liquid; for speed of sound: Linear variable-path acoustic interferometer; for mass density: Vibrating tube method

Structure (SMILES) | speed of sound (293.15 K) [m/s] | mass density (293.15 K) [kg/m3] | speed of sound (298.15 K) [m/s] | mass density (298.15 K) [kg/m3] | speed of sound (303.15 K) [m/s] | mass density (303.15 K) [kg/m3] | speed of sound (308.15 K) [m/s] | mass density (308.15 K) [kg/m3]
CCn1cc[n+](C)c1.F[B-](F)(F)F [1-ethyl-3-methylimidazolium tetrafluoroborate] | 1631 ± 2.6 | 1283.89 ± 1.5 | 1619.4 ± 2.6 | 1279.91 ± 1.5 | 1607.6 ± 2.6 | 1276.26 ± 1.5 | 1596.3 ± 2.6 | 1272.07 ± 1.4
Cc1ccccn1 [2-methylpyridine] | 1400.5 ± 2.5 | 944.401 ± 0.77 | 1380.1 ± 2.5 | 939.802 ± 0.77 | 1361 ± 2.5 | 935.117 ± 0.76 | 1339.9 ± 2.5 | 930.414 ± 0.76
Cc1cccnc1 [3-methylpyridine] | 1445.9 ± 1.8 | 956.581 ± 0.23 | 1424 ± 1.8 | 952.002 ± 0.23 | 1404 ± 1.8 | 947.449 ± 0.23 | 1384 ± 1.8 | 942.831 ± 0.23
Cc1ccncc1 [4-methylpyridine] | 1451.1 ± 1.8 | 955.099 ± 0.23 | 1431.5 ± 1.8 | 950.179 ± 0.23 | 1410.7 ± 1.8 | 945.413 ± 0.23 | 1389.9 ± 1.8 | 940.821 ± 0.23
c1ccncc1 [pyridine] | 1442 ± 1.8 | 983.191 ± 0.23 | 1417.8 ± 1.8 | 978.249 ± 0.23 | 1398 ± 1.8 | 973.224 ± 0.23 | 1377.1 ± 1.8 | 968.166 ± 0.23
